For experiment [1], the system named is phosphatase activity in ApoE transfected A172 glioblastoma cells. The experiment can be described thus: Cellular in vitro phosphatase activation assay (Malachite Green, ApoE cDNA transfected A172 cells). The experiment is classed as cell-based. As to conditions: Homo sapiens, A 172, A172 glioblastoma cells transfected with ApoE cDNA, 24 hours, n = 3, read-out: % increase from ApoE transfected cell at 5 μM test compound concentration. On the procedure:
Cellular in vitro phosphatase activation assay was performed using the method of Theendakara et al, Molecular and Cellular Neuroscience, 83 (2017), pages 83-91 which is described below:
A172 glioblastoma cells were cultured in Dulbecco's modified Eagle's medium (DMEM) supplemented with 10% fetal bovine serum and 1% Penicillin-streptomycin. Incubation was performed at 37° C. and 5% CO2.
A172 cells were seeded at 5×10^5 cells/2.5 ml growth medium (without antibiotics) per well on 6-well tissue culture plates. Cells were incubated overnight to allow them to recover and reattach. […]
After 24 hrs, cells were washed twice with imidazole buffer and lysed using NP-40 Lysis buffer. […] The amount of phosphate release in the assay was determined by measuring absorbance at 620 nm using the Spectramax i3x plate reader.
The absorbance intensity data were analyzed using the computer software Graphpad Prism. The phosphate concentration for each sample was determined from the standard curve using phosphate standard concentrations. In order to compare samples, the first set (column A) were there was no transfection performed and no compound added, was designated a baseline; the absorbance measurement in this column was set as 100% phosphatase activity.

In experiment [2] the test system is D425 medulloblastoma cells. Kind of experiment: D425 medulloblastoma cell viability / growth inhibition (CellTiter-Glo). The experiment is classed as cell-based. As to conditions: n = 3, 0.1% DMSO. As for the experimental part:
D425 medulloblastoma cells were purchased from SigmaAldrich. D425 meduloblastoma cells were cultured in improved Dulbecco's modified Eagle's medium (DMEM) Richter's modification supplemented with 20% fetal bovine serum and 1% Penicillin-streptomycin. Incubation was performed at 37° C. and 5% CO2.
D425 cells were seeded at 3000-3500 cells/90 μL growth medium per well on 96-well tissue culture plates. Cells were incubated overnight to allow them to recover. Next day cells were treated with tested compounds and incubated for 48 hours.
Cell Proliferation assays in triplicate were performed at each concentration. Compounds test range was 1-30 μM (0, 5, 10, 15, 20, 25, and 30). The compounds were dissolved in DMSO. A series of dilutions were made in 1% DMSO in growth medium so that the final concentration of DMSO is 0.1% in all of treatments.
After treatment, cells were allowed to equilibrate at room temperature for one hour. Cell proliferation was measured by Luminescence quantification using Promega CellTiter-Glo Luminescent Cell Viability Assay. To perform the assay, 90 μL of Celltiter-Glo substrate was added to each well, plates were shake for 2 minutes and allowed to equilibrate for 10 minutes at room temperature. Luminescence intensity was measured using the Spectramax i3x plate reader.
The Luminescence intensity data were analyzed using the computer software Graphpad Prism. In the absence of the compound, the luminescence intensity (Lt) in each data set was defined as 100% cell viability. The percent cell in the presence of each compound was calculated according to the following equation: % Cell=L/Lt, were L=the luminescence intensity in the presence of the compound.
The values of % cell versus a series of compound concentrations (0, 5, 10, 15, 20, 25, and 30 μM) were then plotted using Nonlinear regression analysis of Sigmoidal dose-response curve. IC50 value was determined by the concentration causing a half-maximal percent activity.
(In general: ATP-based viability assays read luminescence as a measure of living cells.)

Experiment [3] deals with mouse models of allergic airway disease. As to conditions: small molecule activators of PP2A; cited from earlier work.

A word on the IC50: it is the concentration that inhibits the measured activity by half. Regarding `N=S(=O)(N[C@H]1CCOC(C2c3ccccc3CCc3ccccc32)C1)c1ccc(OC(F)(F)F)cc1` (single isomer, unassigned) [Example 3], in experiment [1], the activation at 5 µM amounted to 22%. This molecule also gave an IC50 in experiment [2] (Medulloblastoma cell, 48 h) of 8.3 µM.
In experiment [2] (48 hours), `N=S(=O)(N[C@H]1CCOC(C2c3ccccc3CCc3ccccc32)C1)c1ccc(OC(F)(F)F)cc1` (single isomer, unassigned) [Example 4] yielded an IC50 of 9.5 µM. That is a single-digit micromolar value.
`N=S(=O)(N[C@H]1CCO[C@@H](C(c2ccc(F)cc2)c2ccc(F)cc2)C1)c1ccc(OC(F)(F)F)cc1` (single isomer, unassigned) [Example 7-isomer1]: in experiment [2] (Medulloblastoma cell, 48 h), the IC50 stood at 14.3 µM.
In the case of `N=S(=O)(N[C@H]1CCO[C@@H](C(c2ccc(F)cc2)c2ccc(F)cc2)C1)c1ccc(OC(F)(F)F)cc1` (single isomer, unassigned) [Example 7-isomer2], the IC50 in experiment [2] (48 hours) was 10.4 µM. This lies in the double-digit micromolar range.
Turning to `CCCCCCCOc1ccc(CCC(C)(N)CO)cc1` [AAL(S), 2-amino-4-(4-(heptyloxy)phenyl)-2-methylbutan-1-ol], the “development of inflammation, airway hyperreactivity in mouse models of allergic airway disease” value in experiment [3] is “inhibited the development of inflammation, airway hyperreactivity”.
Consider `CCCCCCCCc1ccc(CCC(N)(CO)CO)cc1` [fingolimod], for which the “development of inflammation, airway hyperreactivity in mouse models of allergic airway disease” value in experiment [3] is on record as “inhibited the development of inflammation, airway hyperreactivity”.

These data come from US20260327198A1, “2-DIARYLMETHYL-4-AMINOTETRAHYDROPYRAN SULFONIMIDAMIDES AS ANTICANCER, ANTIINFLAMMATORY, ANTIFIBROTIC AND NEUROPROTECTIVE AGENTS” (Atux Iskay LLC, priority 2022, published 2026).
